From US20220370382A1, “METHODS AND COMPOSITIONS FOR CORRECTION OF AUTONOMIC DYSFUNCTIONS” (priority 2021, published 2022)

Experiments:
[1] = cited from earlier work
[2] = test system: effector organs of the vagus nerve; assay: Stimulation of the effector organs of the vagus nerve in patients tested; type: in vivo, human
Source text: Certain ingredients of the compound (a choline compound, an acetylcholinesterase inhibitor and Acetyl-L-Carnitine) have been used to reduce inflammation, to assist those suffering from metabolic insufficiencies, and for healthy memory and mental function, and numerous studies have been published involving cognition, dementia, age-related memory loss and neurodegeneration with these ingredients. (U.S. Pat. No. 6,537,969 B1, Patent No. US 2008/0213401). […] It is not intuitive or obvious that any two of these ingredients can also be effective and that any two of these ingredients can restore parasympathetic nerve function even when the postganglionic nerve is not viable for any reason, by directly stimulating the effector organs themselves.
Driscoll found the use of nicotine can diagnose pre-ganglionic vagus nerve dysfunction. […] Nicotine (transdermal, suppository, or) can be used to discern receptor damage from either direct nerve damage or neurotransmitter dysfunction. These forms of nicotine can be used to verify that the organ is capable of responding, to test the cholinergic receptors or postganglionic nerve, or can be used for short periods of time to assist with said organ function (ileocecal valve, gastroparesis/constipation, gallbladder, pancreas, gastric acid secretion). No part of the vagus nerve is required for the use of nicotine to be effective because the invention can effectively stimulate the receptor on the organ itself. […]

[3] = person, Ehlers-Danlos syndrome, given for a hospital-induced infection
[4] = test system: patients with autonomic dysfunction and/or connective tissue disorders; assay: Patient case studies: other signs (tachycardia, dry eyes, light sensitivity, Roth spot, gallbladder function, pseudotumor cerebri symptoms); type: in vivo, human; details: person, POTS, Idiopathic Intracranial Hypertension; acetazolamide 250 mg three times per day
Experimental: They also suffered with poor digestion, dry eyes, and fatigue.
Most every day (usually in the evenings) they experienced pseudo seizures lasting from 30 minutes to three hours. These began with their eyes rolling up and their eyelids fluttering, then they progressed to full body twitching and spasming. These pseudo seizures continued for over three years, but physicians were unable to locate the source of their symptoms. A Roth spot in their ocular fundus in addition to numerous symptoms of nutrient malabsorption were noted. They suffered with light sensitivity secondary to large pupils (5.5 mm), weight loss, extreme fatigue, constipation, tachycardia, and dry eyes.
Gallbladder removal surgery was recommended.

[5] = test system: patients with autonomic dysfunction and/or connective tissue disorders; details: person, POTS, Idiopathic Intracranial Hypertension; acetazolamide 250 mg three times per day
Source text: Acetazolamide was prescribed for high intracranial pressure.

CN1CCCC1c1cccnc1 (centres unmarked) [Nicotine]
lethal dosage ([1]; human, in vivo): 60 mg | side effects on chronic use ([1]; treatment of parasympathetic and vagus nerve dysfunction on a chronic basis): dermatographia, hives, itching, and welting

Cc1ncc(C[n+]2csc(CCO)c2C)c(N)n1 [Thiamin]
autonomic dysfunction or disorders of the effector organs of the parasympathetic nervous system ([2]; supplementation alone): will not eliminate

CN[C@H](CC(C)C)C(=O)N[C@H]1C(=O)N[C@@H](CC(N)=O)C(=O)N[C@H]2C(=O)N[C@H]3C(=O)N[C@H](C(=O)N[C@H](C(=O)O)c4cc(O)cc(O)c4-c4cc3ccc4O)[C@H](O)c3ccc(c(Cl)c3)Oc3cc2cc(c3O[C@@H]2O[C@H](CO)[C@@H](O)[C@H](O)[C@H]2O[C@H]2C[C@](C)(N)[C@H](O)[C@H](C)O2)Oc2ccc(cc2Cl)[C@H]1O [Vancomycin]
adverse reaction to antibiotic [3]: developed hives and dramatic flushing

CC(=O)Nc1nnc(S(N)(=O)=O)s1 [acetazolamide]
pseudotumor cerebri symptoms [4]: relieved | visual snow [5]: did not improve

C[N+](C)(C)CC(O)CC(=O)[O-] (centres unmarked) [carnitine]
organ function when added to the compound ([2]; case studies, patients with organ malfunction secondary to poor vagus nerve function): better organ function

CN1CCCC1c1cccnc1 (centres unmarked) [oral nicotine, nicotine]
stimulation of the effector organs of the vagus nerve / restoration of vagus nerve function ([2]; patients tested, ingredient used alone, or nicotine by the stated route (transdermal 1-21 mg)): not effective
